# Literature values in patent US20150209404A1, “CELLULAR BLOOD MARKERS FOR EARLY DIAGNOSIS OF ALS AND FOR ALS PROGRESSION” (YEDA RESEARCH AND DEVELOPMENT CO. LTD., priority 2010, published 2015).
# Conditions: ALS patients; Copaxone given daily; both drugs effective in treating MS
substance,measurement,value
glatiramer acetate [Copaxone],outcome of treatment in ALS,failed and were even detrimental
